In brackets after ≈: the same amount, converted by molar mass.
Assays:
[1] = test system: Meloidogyne incognita eggs; experiment: M. incognita egg immersion assay (hatch and mobility of hatched J2); format: in vivo; conditions: for effect on mobility of J2 hatched from eggs immersed in solutions (in words): in vivo
Procedure: (§1) Two types of assays were used to investigate activity against M. incognita: i) eggs were immersed in solutions of the test compounds, and ii) second-stage juveniles (J2) previously hatched from eggs were immersed in the test solutions. These assays were conducted with procedures similar to those in Meyer, et al. (J. Nematol. 2006, 38, 333). M. incognita race 1 (originally isolated in 2013 from a field in Maryland) was grown in the greenhouse on pepper (Capsicum annuum L.) cultivar PA-136. Egg masses were hand-picked from plant roots, rinsed three times with sterile distilled H2O, and agitated in 0.6% NaClO for 3.5 minutes to separate and surface-sterilize eggs. The eggs were rinsed in sterile distilled H2O and stored overnight at 4° C. before use in egg immersion assays. To collect J2 for direct immersion into the test compounds, sterilized eggs were placed into a hatching chamber made with a Spectra/Mesh Nylon Filter (openings 25 μm in diameter; Spectrum Laboratories Inc., Rancho Dominguez, Calif., USA) in an autoclaved dish. J2 that passed through the filter within 3 days were used immediately for assays.
(§2) The assays were conducted in 96-well polystyrene plates. For the assays with immersed eggs, each well received approximately 50 eggs in 35 μl of sterile deionized water (SDW). For assays with previously hatched J2, a suspension of approximately 50 J2 in 35 μl of SDW was placed into each well. Each well then received 165 μl of treatment or control. The solvent used to dissolve the test chemicals was a 1:1:1 mixture referred to herein as CTD: equal parts Cremophor® EL Castor Oil (BASF Corporation, Vandalia, Ill., USA), Tween 80® (Sigma-Aldrich, St. Louis, Mo., USA), and DMSO (Sigma-Aldrich). A high and low rate of each compound was tested. After addition to the nematode suspensions in the wells, the low and high rates were 83.3 and 166.7 μg/ml of each test compound, respectively, dissolved in 0.5% and 1.0% of each of the three combined solvents. Controls were CTD equivalent to the low and high rates, and SDW. Because of the large number of treatments, the test compounds were divided into two groups for the egg immersion assays. The compounds tested in the egg immersion Assay 1 were 3, 6a, 6e, 6f, 6g, 6n, 7a, 7c, 7e, 7f, 7n, 11, 12, 16, and 17. The compounds tested in the egg immersion Assay 2 were 6b, 6h, 6i, 6j, 6k, 6l , 7b, 7g, 7h, 7i, 7j, 7k, 7l, and 7m (data not shown). Test compounds used for assays with previously hatched J2 were selected based on results with the egg assays. The five compounds tested were 6b, 6f, 6g, 6i, and 7k, high and low rates.
(§3) Each polystyrene culture plate was covered with a plastic adhesive sheet (Excel Scientific, Inc., Victorville, Calif., USA) and incubated at 25° C. Ten wells (water controls) or five wells (all other treatments) were used per treatment in each assay. In egg immersion assays, total numbers of hatched J2, and numbers of mobile and immobile J2, were counted after 2 and 7 days incubation in the test compounds. In the first assay with previously hatched J2, the numbers of mobile and immobile J2 were counted after 1 and 2 days incubation, the treatments removed and replaced with a SDW rinse, and 2 days later the mobile vs. immobile J2 counted again. In assays with 6g and 7k, high rates and counts were made on Days 1, 2, 4, and 6, without a SDW rinse.
Data from the M. incognita assays were analyzed with the statistical package JMP 11.2.0 (SAS Institute, Cary, N.C., USA). Differences among numbers of hatched J2 in each treatment, and among percentage of mobile J2 per treatment (number mobile J2/total J2×100), were determined by the ANOVA, and means were compared using Tukey Kramer's adjustment for multiple comparisons (P<0.05). For percent mobile J2 on Day 2 in egg immersion Assays 1 and 2, and Day 4 with the five compounds in the J2 immersion assay, data were log10 (x+1)-transformed before analysis. Data presented are nontransformed means.

[2] = test system: Meloidogyne incognita second-stage juveniles (J2); experiment: M. incognita assay with previously hatched J2 immersed in test solutions; conditions: in vivo
Procedure: as §1
as §2, with “The five compounds tested were 6b, 6f, 6g, 6i, and 7k, high and low rates.” left out
as §3, with “Ten wells (water controls) or five wells (all other treatments) were used per treatment in each assay.” left out, “In assays with 6g and 7k, high rates and counts were made on Days 1, 2, 4, and 6, without a SDW rinse.” left out
Data from the M. incognita assays were analyzed with the statistical package JMP 11.2.0 (SAS Institute, Cary, N.C., USA). Differences among numbers of hatched J2 in each treatment, and among percentage of mobile J2 per treatment (number mobile J2/total J2×100), were determined by the ANOVA, and means were compared using Tukey Kramer's adjustment for multiple comparisons (P<0.05). […]

[3] = test system: Mycobacterium intracellulare ATCC 23068; experiment: Antimicrobial microplate assay (modified CLSI, AlamarBlue); format: cell-based; conditions: ATCC23068, My. intracellulare
Procedure: (§4) All organisms were obtained from the American Type Culture Collection (ATCC; Manassas, Va., USA) and included the fungi Cryptococcus neoformans ATCC 90113 and the bacteria Staphylococcus aureus ATCC 29213, methicillin-resistant S. aureus ATCC 33591 (MRSA), and Mycobacterium intracellulare ATCC 23068. All organisms were tested using modified versions of the CLSI (formerly NCCLS) methods. For all organisms excluding My. intracellulare, optical density was used to monitor growth. Medium supplemented with 5% AlamarBlue® (BioSource International, Camarillo, Calif., USA) was utilized for growth detection of My. intracellulare. Samples (dissolved in DMSO) were serially diluted in 20% DMSO/saline and transferred (10 μl) in duplicate to 96-well flat-bottom microplates. Inocula were prepared by correcting the OD630 of microbe suspensions in Sabouraud Dextrose for Cr. neoformans, cation-adjusted Mueller-Hinton (Difco) at pH 7.3 for Staphylococcus spp., and 5% AlamarBlue® (BioSource International) in Middlebrook 7H9 broth with OADC enrichment, pH=7.0 for My. intracellulare, to afford an assay volume of 200 μl and final target inocula of: Cr. neoformans.: b 1.5×10^3, My. intracellulare: 2.0×10^6, and Staphylococcus spp.,: 5.0×10^5 CFU/ml. Final sample test concentrations were 1/100th the DMSO stock concentration. […] All organisms were read at either 530 nm using the Biotek Powerwave XS plate reader (Bio-Tek Instruments, VT) or 544ex1590em (My. intracellulare) using the Polarstar Galaxy Plate Reader (BMG LabTechnologies, Germany) before and after incubation: Staphylococcus spp. at 35° C. for 16-20 h, Cr. neoformans at 35° C. for 70-74 h, and My. intracellulare at 37° C. and 10% CO2 for 70-74 h. IC50 Values (concentrations that afford 50% inhibition relative to controls) werecalculated using XLfit 4.2 software (IDBS, Alameda, Calif.) using fit model 201.

[4] = test system: Staphylococcus aureus ATCC 29213; experiment: Antimicrobial microplate assay (modified CLSI); format: cell-based; conditions: ATCC29213, S. aureus
Procedure: as §4

[5] = test system: methicillin-resistant S. aureus ATCC 33591 (MRSA); experiment: Antimicrobial microplate assay (modified CLSI); format: cell-based; conditions: Staphylococcus aureus
Procedure: as §4

[6] = test system: Cryptococcus neoformans ATCC 90113; experiment: Antimicrobial microplate assay (modified CLSI); format: cell-based; conditions: Cryptococcus neoformans, ATCC90113; Cr. neoformans
Procedure: All organisms were obtained from the American Type Culture Collection (ATCC; Manassas, Va., USA) and included the fungi Cryptococcus neoformans ATCC 90113 and the bacteria Staphylococcus aureus ATCC 29213, methicillin-resistant S. aureus ATCC 33591 (MRSA), and Mycobacterium intracellulare ATCC 23068. All organisms were tested using modified versions of the CLSI (formerly NCCLS) methods. For all organisms excluding My. intracellulare, optical density was used to monitor growth. Medium supplemented with 5% AlamarBlue® (BioSource International, Camarillo, Calif., USA) was utilized for growth detection of My. intracellulare. Samples (dissolved in DMSO) were serially diluted in 20% DMSO/saline and transferred (10 μl) in duplicate to 96-well flat-bottom microplates. Inocula were prepared by correcting the OD630 of microbe suspensions in Sabouraud Dextrose for Cr. neoformans, cation-adjusted Mueller-Hinton (Difco) at pH 7.3 for Staphylococcus spp., and 5% AlamarBlue® (BioSource International) in Middlebrook 7H9 broth with OADC enrichment, pH=7.0 for My. intracellulare, to afford an assay volume of 200 μl and final target inocula of: Cr. neoformans.: b 1.5×10^3, My. intracellulare: 2.0×10^6, and Staphylococcus spp.,: 5.0×10^5 CFU/ml. Final sample test concentrations were 1/100th the DMSO stock concentration. Drug controls (Ciprofloxacin (ICN Biomedicals, Ohio, USA) for bacteria and Amphotericin B (ICN Biomedicals) for fungi) were included in each assay. All organisms were read at either 530 nm using the Biotek Powerwave XS plate reader (Bio-Tek Instruments, VT) or 544ex1590em (My. intracellulare) using the Polarstar Galaxy Plate Reader (BMG LabTechnologies, Germany) before and after incubation: Staphylococcus spp. at 35° C. for 16-20 h, Cr. neoformans at 35° C. for 70-74 h, and My. intracellulare at 37° C. and 10% CO2 for 70-74 h. IC50 Values (concentrations that afford 50% inhibition relative to controls) werecalculated using XLfit 4.2 software (IDBS, Alameda, Calif.) using fit model 201.

Colletotrichum acutatum = experiment: Direct bioautography, antifungal; format: cell-based; conditions: Colletotrichum acutatum; 2 mM; 4 μl spotted (2 μl of the positive controls); average of 2 assays; read-out: zones of inhibition
Procedure: (§5) The analogs were tested for activity against Colletotrichum acutatum SIMMONDS, C. fragariae BROOKS, and C. gloeosporioides (PENZ) PENZ & SACC. in Penz., using a direct bioautography method as previously described by Tabanca et al. (Nat. Prod. Commun. 2008, 3, 1073) and Wang, et al. (J. Agric. Food Chem. 2013, 61, 4551). Technical grade commercial fungicide standards benomyl, cyprodinil, azoxystrobin, and captan were used at 0.9-1.61 μg/μl concentrations in 95% EtOH. After sample application, each TLC plate was subsequently sprayed with a spore suspension (3.0×10^5 spores/ml) of the fungus of interest and incubated in a moisture chamber for 4 days at 26° C. with a 12 hour photoperiod. Clear zones of fungal growth inhibition on the TLC plate indicated the presence of antifungal constituents in each extract or pure compound. The test compounds were prepared at 2 mM soln. in 95% EtOH, and 4 μl were spotted on the plates (2 μl of the positive controls).

C. gloeosporioides = experiment: Direct bioautography, antifungal; format: cell-based, Colletotrichum gloeosporioides; conditions: Colletotrichum gloeosporioides; 2 mM; 4 μl spotted (2 μl of the positive controls); average of 2 assays; read-out: zones of inhibition
Procedure: as §5

C. fragariae = experiment: Direct bioautography, antifungal; format: cell-based, Colletotrichum fragariae; conditions: Colletotrichum fragariae; 2 mM; 4 μl spotted (2 μl of the positive controls); average of 2 assays; read-out: zones of inhibition
Procedure: as §5

[7] = 7 days, high rate (166.7 μg/ml)

COc1cc(/C=C/c2ccc(Cl)cc2)cc(OC)c1C [Compound 6f, (E)-1,3-dimethoxy-5-(4-chlorostyryl)-2-methylbenzene]
Percent mobile J2, assay 1 [1, 7]: 71.3%
Percent mobile J2, assay 1 ([1]; 7 days, low rate (83.3 μg/ml)): 93.9%
effect on mobility of J2 hatched from eggs immersed in solutions (in words) [1]: some suppressive effect on mobility
effect on mobility of J2 previously hatched in water and immersed directly (in words) [2]: only 6g and 7k had an effect on J2 mobility

COc1cc(/C=C/c2ccc(Br)cc2)cc(OC)c1C [Compound 6g, (E)-1,3-dimethoxy-5-(4-bromostyryl)-2-methylbenzene]
Percent mobile J2, assay 1 [1, 7]: 74.6%
Percent mobile J2, assay 1 ([1]; 7 days, low rate (83.3 μg/ml)): 89.2%
effect on mobility of J2 hatched from eggs immersed in solutions (in words) [1]: some suppressive effect on mobility
effect on mobility of J2 previously hatched in water and immersed directly (in words) [2]: had an effect on J2 mobility

COc1cc(/C=C/c2ccc(Cl)c(Cl)c2)cc(OC)c1C [Compound 6i, (E)-1,3-dimethoxy-5-(3,4-dichlorostyryl)-2-methylbenzene]
Percent mobile J2, assay 2 ([1]; 2 days, high rate (166.7 μg/ml)): 100.0%
Percent mobile J2, assay 2 ([1]; 2 days, low rate (83.3 μg/ml)): 71.0%
Percent mobile J2, assay 2 [1, 7]: 93.2%
Percent mobile J2, assay 2 ([1]; 7 days, low rate (83.3 μg/ml)): 87.7%
effect on mobility of J2 hatched from eggs immersed in solutions (in words) [1]: some suppressive effect on mobility
effect on mobility of J2 previously hatched in water and immersed directly (in words) [2]: only 6g and 7k had an effect on J2 mobility

COc1cc(/C=C/c2ccc(O)cc2)cc(OC)c1C [Compound 16, (E)-4-(3,5-dimethoxy-4-methylstyryl)phenol]
IC50 [3]: 34 µM
MIC [3]: 74 µM (≈ 20 µg/mL)
IC50 [4]: 20.4 µM
MIC [4]: 74 µM (≈ 20 µg/mL)
IC50 [5]: 43.7 µM
MIC [5]: 74 µM (≈ 20 µg/mL)
IC50 [6]: 5.22 µM
MIC [6]: 9.25 µM (≈ 2.5 µg/mL)

Cc1cc(C2CC2)nc(Nc2ccccc2)n1 [Cyprodinil, cyprodinil]
zone of inhibition at 2000 µM (Colletotrichum acutatum): 18 mm
zone of inhibition at 2000 µM (C. gloeosporioides): 21.5 mm
zone of inhibition at 2000 µM (C. fragariae): 21.5 mm
